Results reported in ChEMBL document CHEMBL3507680, “University of Dundee, Gates Library screen for HepG2 cell viability”.

Assay: Human HepG2 cell viability assay in 384 well format
Type: toxicity, cell-based
Parameters: dose 125 nL, time 70.5 hour; cytotoxicity at 70.5 h: concentration not given beside the values
Details: HepG2 cells, read-out: Inhibition

| Structure (SMILES) | cytotoxicity at 70.5 h |
| --- | --- |
| OCc1cc2ccccc2nc1N1CCCC1 | -15.5% |
| COc1cc(NC(=O)NC2CCOCC2)ccc1N1CCOC1=O | 6.14% |
| CCC(=O)CNC(=O)CCn1nc2ccccn2c1=O | -1.88% |
| Cc1cc2c(cc1C)OC(C(=O)NCCNC(=O)C1CCCC1)C2 (centres undefined) | -6.43% |
| Cc1cc(N2CCN(c3nc4ccccc4cc3CO)CC2)nc(C)n1 | -9.44% |
| COc1c(CNCc2ccc(N3CCOCC3)nc2)c(C)nn1C | -5.76% |
| Cc1cccc(N(CCC(N)=O)C(=O)c2cc(-n3cccn3)ccn2)c1 | -12% |
| O=C(CCc1cccnc1)Nc1ccc(OCC2CCOCC2)cc1 | -10.4% |
| CNS(=O)(=O)CC1CCCN1C(=O)c1ccc(C)c(C)c1 (centres undefined) | 25.9% |
| CC(C)(C)c1csc(C2CCCCN2C(=O)CCn2cncn2)n1 (centres undefined) | -5.87% |
| Cn1cc(Br)cc(NC(=O)CC2CCC2)c1=O | -6.41% |
| Cc1cccc(N(CCC(N)=O)C(=O)c2ccnc(C)n2)c1 | -13.8% |
| COCCn1cc(NC(=O)NC(C)CCc2ccccc2)ccc1=O (centres undefined) | -7.43% |
| O=C(NCc1cccnc1)NCC(O)c1ccccc1C(F)(F)F (centres undefined) | -9.13% |
| Cc1cc(N2CCC(N(C)Cc3cc(=O)c(O)co3)CC2)nc(C)n1 | -7% |
| CN(Cc1cc(=O)c(O)co1)C1CCCN(c2ccccc2)C1 (centres undefined) | 24.6% |
| Cc1ccc(CN(C(=O)NCCNC(=O)c2cccnc2)C(C)C)o1 | 14.6% |
| Cc1csc(C2CCCCN2C(=O)CCCn2cccn2)n1 (centres undefined) | -11.4% |
| COC(=O)Cc1cccc(NC(=O)Cc2ccon2)c1 | 23.7% |
| Cc1csc(C2CCCCN2C(=O)CCCn2cncn2)n1 (centres undefined) | -9.21% |
| COc1cc(F)c(NC(=O)N(C)CCNC(=O)N(C)C)cc1F | -0.221% |
| Cc1nn(C)c(C)c1NC(=O)Nc1cccnc1N1CCCC1 | -7.71% |
| Cc1cc(S(=O)(=O)N(C)CC(N)=O)ccc1Br | -2.54% |
| CCC(C)NC(=O)c1cc(S(N)(=O)=O)c(Br)s1 (centres undefined) | -6.88% |

| Structure (SMILES) | cytotoxicity at 70.5 h |
| --- | --- |
| CN(Cc1ccc2c(c1)OCCO2)Cn1nc(C(C)(C)C)ccc1=O | 12.7% |
| CN(C)S(=O)(=O)c1ccc2c(c1)N(Cc1ccccn1)CCC2 | -1.38% |
| CN(C)S(=O)(=O)c1ccc2c(c1)N(Cc1nccn1C)CCC2 | -6.79% |
| CN1CCN(c2ccnc3c(F)cc(Br)cc23)CC1 | 1.8% |
| O=C(CCc1cncc(F)c1)NS(=O)(=O)c1ccc(F)cc1F | 8.87% |
| Cc1cc(F)cc(S(=O)(=O)NC(=O)CCc2cncc(F)c2)c1 | -4.33% |
| COc1cc(F)c(NC(=O)N(C)Cc2cc(C)on2)cc1F | -5.99% |
| O=C(CN1CCC(OCC2CCCO2)CC1)NCC(F)(F)F (centres undefined) | -7.24% |
| CCNC(=O)CN1CCC(OCC2CCCO2)CC1 (centres undefined) | -6.63% |
| CCc1nnc2n1CC(CNCc1nnc(C(C)(C)C)o1)CC2 (centres undefined) | -6.78% |
| FC(F)(F)Cn1cc(NCc2cscn2)cn1 | -5.23% |
| CC(C)(C)n1cc(NCc2cscn2)cn1 | -6.29% |
| CC(C)c1nnc(NC(=O)N2CCN(C)CC2c2ccccc2)s1 (centres undefined) | 9.58% |
| CC(C)c1nnc(NC(=O)N2CCCC2c2ccncc2)s1 (centres undefined) | 20% |
| CN(C)C(CNC(=O)c1nc(N2CCOCC2)ncc1Cl)c1cccs1 (centres undefined) | -8.97% |
| CNC(=O)NC(=O)C(C)N1CCCc2cc(OC)ccc2C1 (centres undefined) | -13.9% |
| COc1cc(C(C)=O)ccc1SCC(=O)Nc1ccccn1 | 21.7% |
| COc1cc2c(cc1OC)S(=O)(=O)N(Cc1cc(C)on1)C2=O | -4.33% |
| COc1cc2c(cc1OC)S(=O)(=O)N(Cc1cnn(C)c1)C2=O | -22.9% |
| COc1ccc2c(c1)CCCN(C(C)C(=O)NC(C)C)C2 (centres undefined) | -15.7% |
| CCc1ocnc1C(=O)Nc1ccc2ccn(CCN(C)C)c2c1 | -13.2% |
| COc1cc(C(C)=O)ccc1SCC(=O)Nc1ccc(C)cn1 | -7.73% |
| O=C(c1coc2ccccc12)N1CCS(=O)(=O)CC1 | -5.47% |
| NC(=O)c1ccc(OCCC(=O)NC2CCc3c(F)cccc32)cc1 (centres undefined) | 21.4% |

| Structure (SMILES) | cytotoxicity at 70.5 h |
| --- | --- |
| N#Cc1cccc(Cl)c1NCCc1n[nH]c(=O)[nH]1 | -3.93% |
| N#Cc1cccc(Cl)c1NCCCc1nc(=O)[nH][nH]1 | -9.76% |
| COCCN(Cc1cccc(C#N)c1)Cc1nnsc1Cl | 23% |
| CCCN(CCC)Cc1nnsc1Cl | -13.7% |
| O=C(NCCc1cccs1)N1CCC[C@H]1CO | -6.62% |
| CCN(Cc1nnsc1Cl)C(C)c1ccc(C#N)cc1 (centres undefined) | -3.23% |
| COc1ccc2c(c1)CCCN(C(C)C(=O)N1CCCC1)C2 (centres undefined) | -3.36% |
| CCC(C)(C)NC(=O)Cn1cc(C(N)=O)c(-c2ccccc2)n1 | -7.28% |
| Cc1ncc2c(n1)CN(CCOc1ccc3c(c1)CCC(=O)N3)CC2 | -6.43% |
| COc1ccc(C(=O)CCc2nc(C3CC3)no2)cc1 | -23.1% |
| COc1ccc(CCN2CC(n3nc(C)cc3C)C2)cc1 | -16.5% |
| Cc1nnnn1-c1cc(NCc2cccc(C#N)c2)ccc1F | -24.4% |
| COc1ccccc1N1CCN(Cc2cnc3c(c2)c(C)nn3C)CC1 | -11.4% |
| O=C(CCc1nc(C2CC2)no1)c1ccc(F)c(F)c1 | -17.2% |
| Cc1cccc2c1C(=O)NC(c1cnc(C3CCC3)s1)N2 (centres undefined) | -21.1% |
| CCS(=O)(=O)CCNC(=O)NC(C)c1ccc(C)s1 (centres undefined) | -8.94% |
| CCS(=O)(=O)CCNC(=O)NC(C)c1cc(C)sc1C (centres undefined) | -15.4% |
| CC(C)c1noc(CCNC(=O)N2CCN(c3cccs3)CC2)n1 | 40.3% |
| Cc1cc(C(=O)N(C)C)c2c(Br)cccc2n1 | -10.8% |
| CN(Cc1cccs1)S(=O)(=O)c1ccc(C(F)(F)F)nc1 | -20.9% |
| CN(CCn1cnnc1)S(=O)(=O)c1ccc(C(F)(F)F)nc1 | -15.6% |
| CN(CC(C)(C)C)S(=O)(=O)c1ccc(C(F)(F)F)nc1 | -25.1% |
| Cc1nn(C)c2ncc(CN3CCN(Cc4ccco4)CC3)cc12 | -18.7% |
| OC(COCc1ccco1)CN1CCC(Cn2cccn2)CC1 (centres undefined) | -14.1% |

| Structure (SMILES) | cytotoxicity at 70.5 h |
| --- | --- |
| O=C(COCCOc1ccccc1)Nc1ccnn1CC1CCOC1 (centres undefined) | -21.2% |
| CS(=O)(=O)c1cccc(OCC(=O)N2CCCC2c2ccc[nH]2)c1 (centres undefined) | -7.78% |
| CN(Cc1cnn(C)c1)C(=O)c1cc2ccccc2c(=O)[nH]1 | -9.32% |
| COc1ccc(Cl)cc1NC(=O)CNc1ccn(CC(N)=O)n1 | 20.1% |
| CCC(=O)NC1CCCN(C(=O)Nc2cccc(COC(C)C)c2)C1 (centres undefined) | 7.06% |
| CC(C(=O)NCC1(c2c(F)cccc2F)CCCC1)S(C)(=O)=O (centres undefined) | -7.67% |
| O=C(c1[nH]c2ccc(Cl)cc2c1Cl)N1CCC2(CC1)OCCO2 | -0.999% |
| COc1ccc(CNC2CCN(c3ccccc3)C2)cc1O (centres undefined) | 19.7% |
| Nc1cc2c(nn1)CCN(C(=O)c1ccccc1Oc1cccnc1)C2 | -1.03% |
| CN(C)C1(CNC(=O)C/C=C/c2ccc(F)cc2)CCOCC1 | 22.9% |
| N#Cc1cc(S(N)(=O)=O)ccc1NC1CCc2c(F)cccc21 (centres undefined) | -10.4% |
| Cn1ncc2cnn(CC(O)COCc3ccccc3Cl)c2c1=O (centres undefined) | -5.81% |
| COCCN(Cc1ccc(F)cc1C#N)CC(F)(F)F | -10.5% |
| CCN(CCNC(=O)C1CCCN(C(C)=O)C1)c1ccccc1C (centres undefined) | -10.5% |
| c1cnnc(NCC2CN(CCn3cccn3)CCO2)c1 (centres undefined) | -2.81% |
| Cc1nnc(CN2CCCC2c2ccc(Cl)c(Cl)c2)o1 (centres undefined) | -1.84% |
| CC(C(=O)N(C)C1CCCCC1)S(=O)(=O)Cc1csc(-c2cccs2)n1 (centres undefined) | -7.18% |
| CC(C(=O)NCC1CCCCC1)S(=O)(=O)Cc1csc(-c2cccs2)n1 (centres undefined) | -9.36% |
| NC(=O)C(NC(=O)COC1CCCCC1)c1ccccc1 (centres undefined) | -4.15% |
| NC(=O)C(NC(=O)COC1CCCC1)c1ccccc1 (centres undefined) | -6.85% |
| CCN(CC)S(=O)(=O)N1CCCC1C(=O)N1CCSCC1 (centres undefined) | -2.8% |
| CN(C)S(=O)(=O)N1CCCC1C(=O)N1CCSCC1 (centres undefined) | 22.8% |
| O=C(c1ccc(O)nc1)N1CCN(C(=O)c2ccc(F)cc2F)CC1 | -7.11% |
| CCN1CCN(c2ccc(C(=O)NCc3cc(C)no3)cc2F)CC1 | -4.13% |

| Structure (SMILES) | cytotoxicity at 70.5 h |
| --- | --- |
| CCn1nc2c(cc1=O)CN(CC(=O)Nc1nccs1)CC2 | -2.47% |
| CCn1nc2c(cc1=O)CN(CC(=O)N(C)c1nccs1)CC2 | 25.4% |
| CC(C)n1nc2c(cc1=O)CN(CC(=O)N(C)c1nccs1)CC2 | 6.02% |
| O=C(NC(C(=O)Nc1cc[nH]n1)c1ccccc1)C1CCC1 (centres undefined) | -0.966% |
| COc1cc(C)c(CNC(C)c2csc(C)n2)cc1OC (centres undefined) | -2.42% |
| CCC(O)CN1CCN(C(=O)c2csc(COC)n2)CC1 (centres undefined) | -3.48% |
| CN(CC1CN(CCn2cc(C#N)cn2)CCO1)c1cccnn1 (centres undefined) | -6.68% |
| OC(COCc1cccs1)Cn1cc(Cl)cn1 (centres undefined) | -1.21% |
| OC(COCc1cccs1)Cn1cc(Br)cn1 (centres undefined) | -1.14% |
| Cc1cnn(CCNCc2csc(COc3ccccc3)n2)c1 | -0.421% |
| CN(C)C(=O)CN(C)C(=O)c1csc(Br)c1 | 13.6% |
| COc1ncccc1NC(=O)C1CC(=O)N(Cc2ccccn2)C1 (centres undefined) | 0.729% |
| CN(Cc1cccc(Cl)c1)S(=O)(=O)N1CCOCC1 | 1.29% |
| COCCn1nc(C(=O)N(C)Cc2cnn(C)c2)ccc1=O | 42.3% |
| COc1cccc(CCNS(=O)(=O)c2ccc(NC(C)=O)cc2)c1 | 2.8% |
| CSc1ccc(C(CNC(=O)C2CC2)N2CCc3sccc3C2)cc1 (centres undefined) | -2.83% |
| CN(C)c1ccc(CNC(=O)c2ccc(Cl)cc2F)cc1 | 3.13% |
| CN(C)C(=O)CNC(=O)c1ccc(Cl)cc1F | 45.3% |
| Cc1nn(CC(=O)N2CCN(c3ccncc3)CC2)c(C)c1Cl | 1.17% |
| Brc1cc(CNCc2nnc3n2CCC3)cs1 | -8.54% |
| O=C1NCCCCC1NCc1csc(-c2ccccn2)n1 (centres undefined) | -12.2% |
| NCC1CCCCN1C(=O)Cc1cccc(Br)c1 (centres undefined) | -4.6% |
| NCC1CCCCN1C(=O)Cc1cccc(Cl)c1 (centres undefined) | -6.28% |
